Key:
MC38 tumor = assay: Anti-tumor activity and survival in MC38 mouse tumor model; format: in vivo; settings: MC38 mice, i.p.; antibody drugs 150 μg per mouse, D18 25 μg per mouse; schedule Table 1
Text: A. Treatment with ADC HE-S2, single administration of anti-PD-L1 antibody, D18, or anti-PD-L1 THIOMAB, and anti-PD-L1 antibody/D18 combined administration for inhibitory activity against mouse MC38 tumor growth. B. Whole animal survival study. The ordinate of the curve represents the percentage of tumor-bearing mice that remained alive after different days, and the abscissa thereof represents the number of experimental days. C. Treatment with ADC HE-S2, single administration of anti-PD-L1 antibody, D18, or anti-PD-L1 THIOMAB, and anti-PD-L1 antibody/D18 combined administration for inhibitory activity against mouse MC38 tumor growth. Student's t test was used to compare significant differences between the groups, and p<0.001 is represented by ***.
To verify the anti-cancer activity of ADC HE-S2, the inventors first made a mouse model with MC38. After the tumor was loaded, a visible tumor could be observed on the mouse surface for about one week. When the mean tumor tissue volume of the mice reached 100 mm^3, the mice were randomly grouped as follows according to the final type of drug administered: IgG isotype control antibody group (abbreviated as IgG), anti-PD-L1 antibody group (anti-PD-L1), anti-PD-L1 THIOMAB group (Thiomab), D18 group (D18), D18/anti-PD-L1 antibody combination treatment group (anti-PD-L1 & D18), and ADC HE-S2 group (ADC HE-S2), with 7-8 mice per group. The IgG isotype control antibody group, the anti-PD-L1 antibody (i.e., avelumab as described in Example 2) group, and the anti-PD-L1 THIOMAB (i.e., mutant antibody prepared in Example 2) group were administered twice a week via intraperitoneal injection of 150 μg per mouse for each time. The D18 group was administered twice a week via intraperitoneal injection of 25 μg per mouse for each time. In the D18/anti-PD-L1 antibody combination treatment group, the anti-PD-L1 antibody was dosed twice a week, 150 μg per mouse for each time; the D18 was dosed […], 25 μg per mouse for each time; in the ADC HE-S2 group, ADC HE-S2 was dosed once a week via intraperitoneal injection of 150 μg per mouse for each time; the anti-PD-L1 antibody was dosed once a week, staggered from the administration of the ADC, via intraperitoneal injection of 150 μg per mouse for each time.
Dosage: Antibody drugs, administered 150 μg per mouse for each time, and D18, administered 25 μg per mouse for each time. - means no administration on the day. * Only mice with MC38 tumor model were allowed to be administered until the 24th day, and mice with B16 tumor model were no longer administered after the 21st day.

[1] = test system: PD-L1 positive wild-type DC 2.4 cells; assay: Preliminary internalization experiment in DC cells (FACS, 10% FBS); format: cell-based, mouse; settings: wild-type DC 2.4, 10% FBS, incubation 8 h, pHrodo red labeled antibody
Method: PD-L1 positive wild-type DC 2.4 cells and PD-L1 negative Cd274 knockout DC 2.4 cells were cultured in a 10% FBS culture medium, anti-PD-L1 THIOMAB labeled with pHrodo™ red dye was added after the cell state was stable, and the cells were incubated overnight. The intracellular red fluorescence intensity was then analyzed by FACS to characterize the internalization level of THIOMAB.
To verify internalization of anti-PD-L1 THIOMAB on DC cells, the inventors acquired two kinds of DC cells, which were Cd274 knockout DC 2.4 cells and wild-type DC 2.4 cells, from the teacher named Tang Haidong of the School of Pharmaceutical Sciences, Tsinghua University. The Cd274 gene was a PD-L1 encoding gene, and the knocked-out DC 2.4 could not express PD-L1 protein, so the first kind of cells was PD-L1 negative DC cells; while wild-type DC 2.4 could express PD-L1, so the second kind of cells was PD-L1 positive DC cells (as shown in FIG. 12). […]
In preliminary experiments, the inventors added 10% heat-inactivated fetal bovine serum (FBS) as a blocking agent to a culture medium of DC 2.4 cells according to a conventional procedure, and detected the red fluorescence signals in the cells by FACS after incubation for 8 h, and the results are shown in FIG. 13. […]

B16 cells = assay: Internalization of pHrodo red labeled anti-PD-L1 THIOMAB in cancer cells (IncuCyte); format: cell-based, mouse; settings: 24 h, pHrodo red labeled antibody, control 98.53
Method: (§1) After MC38 and B16 cells were treated for 24 hours with anti-PD-L1 THIOMAB labeled with pHrodo™ red dye, A. high-definition phase images, red fluorescence images and combined images of cells were collected by using an IncuCyte® viable cell system; B. a total red object integrated intensity histogram was obtained by analysis using IncuCyte® software, wherein the logarithm of 10 was taken for the ordinate data. Student's t test was used to compare significant differences between the groups, and p<0.0001 is represented by ****.
(§2) The pHrodo™ red dye is known to be a pH sensitive fluorescent dye, which rapidly increases in molecular fluorescence intensity when the surrounding environment becomes acidic (Lehrman et al., 2018). When the dye was internalized into the cells along with the antigen-antibody complex, the pH of the environment around the dye was reduced to acidity, thereby producing an observable fluorescence signal. This property allowed the internalization process of the antibody to be monitored by using the pHrodo™ red dye. Through the IncuCyte® viable cell analysis system, the inventors could perform image-based monitoring and quantitative analysis on the internalization process of the anti-PD-L1 antibody labeled with the pHrodo™ red dye. […]

MC38 cells = assay: as above; format: cell-based, mouse; settings: 24 h, pHrodo red labeled antibody, control 84.88
Method: as §1, §2

In the case of “anti-PD-L1 THIOMAB: mutant avelumab, light chain V205C (SEQ ID NO: 9), heavy chain SEQ ID NO: 4; pHrodo red labeled in internalization tests”, the “inhibitory activity against MC38 tumor growth” value (MC38 tumor) is reported as “slightly superior to the efficacy of the IgG isotype antibody”, the “proportion of red fluorescence positive cells” value [1] is reported as 53.6% and the “total red object integrated intensity” value (B16 cells) is reported as 283613.60. The “total red object integrated intensity” value (MC38 cells) was 13701.63.
